Experimental data as given in patent US20260130928A1, “COMBINATION OF AKR1C3 ACTIVATED ANTICANCER PRODRUG COMPOUND AND ANALGESIC DRUG FOR TREATING CANCER PATIENTS ACCOMPANIED BY PAIN” (ASCENTAWITS PHARMACEUTICALS, LTD., priority 2022, published 2026).
Like-named read-outs stand apart in the source and are kept apart here. Blank lines part the entries; values can stand above or below the compound they belong to.

What was measured:
[1] = read-out: Cmax converted to the molar concentration; celecoxib single dosage (200 mg) in healthy subjects
[2] = cited from earlier work
[3] = Body weight / tolerance of mice in the human lung cancer NCI-H460 model
[4] = test system: human lung cancer NCI-H460; assay: Pharmacodynamics in subcutaneous xenograft model of human lung cancer NCI-H460 (tumor volume, TGI); assay type: in vivo, BALB/c nude mice
Procedure: Measures of pharmacodynamics of AST-3424 monotherapy and combination therapy with Celecoxib were performed in a subcutaneous xenograft model of human lung cancer NCI-H460 established by using female BALB/c nude mice.
After the inoculation of tumor cell, tumor growth was routinely monitored, and tumor volume and mouse weight were measured. Evaluation of therapeutic efficiency was based on the relative tumor growth inhibition TGI (%). The specific results are shown in Table 3 and FIG. 3, and the Pharmacodynamics analysis data on Day 30 after inoculation (at the end of drug administration) are particularly given in Table 4.

clinical = details: human, in vivo
H460 cell line = assay: In vitro cell proliferation inhibition with the drug combination (CTG method); assay type: cell-based, human; details: combined with AST-3424
Procedure: • a) H460 cells (human non-small lung cancer cells, AKR1C3 enzyme highly expressed) were cultured in RPMI-1640 medium, added with 10% FBS and 1% double antibody, and placed at 37° C. and 5% CO2 for culturing.
• a) The cells were routinely cultured until the cell saturation was 80%-90%, and when the required quantity was reached, the cells were collected. • b) The cells were resuspended with the corresponding medium and cell counts were performed to prepare a cell suspension with appropriate density. • c) The cell suspension was added to a 96-well plate with 100 μL per well, and the cell density was 2,000 cells per well. • d) The cells were incubated overnight in an incubator at 37° C. with 5% CO2. 1.1.3 Treating Cells with Compound (72 Hours)
AST-3424 alone: after 24 hours of cell seeding, AST-3424 was administered alone. Specifically, each well was supplemented with 99 μL of growth medium, and then added with 1 μL of the prepared AST-3424 solution to form different concentrations of AST-3424. The plate was shaken gently to ensure uniform mixing, and placed in an incubator at 37° C. with 5% CO2.
The cell plates were placed in the incubator for 72 hours.
1.1.4 Treating Cells with Compound (2 Hours) • a) Administrating single drug: after 24 hours of cell seeding, AST-3424 was administered alone. Specifically, each well was supplemented with 99 μL of growth medium, and then added with 1 μL of the prepared AST-3424 solution to form different concentrations of AST-3424. The plate was shaken gently to ensure uniform mixing, and placed in the incubator for 2 hours. […] The plate was shaken gently to ensure uniform mixing. After the plate was placed in the incubator for 2 hours, 1 μL of the prepared AST-3424 solution was added to form different concentrations of AST-3424. The plate was shaken gently to ensure uniform mixing, and placed in the incubator at 37° C. with 5% CO2 for another 2 hours. Then, the supernatant was discarded, and the remainder was washed twice with growth medium and added with 200 μL of fresh medium.
1.1.6 Detecting with CTG Method • a) The cell plate to be tested was placed at room temperature to equilibrium for 30 minutes, and 100 μL of culture medium was discarded from each well. • b) 25 μL CTG reagent (CelltiterGlo kit) was added to each well. The plate was placed on a fast shaker to shake for 2 minutes, and then placed at room temperature away from light for 30 minutes. • c) The chemiluminescent signal value was read with multifunctional microplate reader at reading time of 1000 ms.
IC50 was calculated with GraphPad Prism 5 software, and the IC50 (half maximal inhibitory concentration) of the compound was obtained using the following nonlinear fitting formula: […]

AKR1C3 = details: reported in literature; cited from earlier work
[5] = Group 2: Celecoxib 50 mg/kg QD×15 p.o., Day 37 after the inoculation of tumor cell
[6] = Group 3: Celecoxib 100 mg/kg QD×15 p.o., Day 37 after the inoculation of tumor cell
[7] = Group 2: Celecoxib 50 mg/kg QD×15 p.o., Day 30 after inoculation
[8] = Group 3: Celecoxib 100 mg/kg QD×15 p.o., Day 30 after inoculation

Compound: Cc1ccc(-c2cc(C(F)(F)F)nn2-c2ccc(S(N)(=O)=O)cc2)cc1 [Celecoxib]
Cmax [1]: 1.85 µM
Cmax ([2]; celecoxib single dosage (200 mg) in healthy subjects, drug instructions): 705 ng/mL
Mean body weight g (x ± S) ([3]; Group 2: Celecoxib 50 mg/kg QD×15 p.o., Day 9 after the inoculation of tumor cell): 24.8 ± 0.5 g
Change of body weight (%) [3, 5]: 4.05%
Mean body weight g (x ± S) [3, 5]: 25.8 ± 0.4 g
Mean body weight g (x ± S) ([3]; Group 3: Celecoxib 100 mg/kg QD×15 p.o., Day 9 after the inoculation of tumor cell): 25.2 ± 0.5 g
Change of body weight (%) [3, 6]: 2.28%
Mean body weight g (x ± S) [3, 6]: 25.8 ± 0.6 g
Tumor volume (x ± S) ([4]; Group 2: Celecoxib 50 mg/kg QD×15 p.o., Day 9 after cell inoculation): 145.68 ± 12.36 mm^3
Tumor volume (x ± S) ([4]; Group 2: Celecoxib 50 mg/kg QD×15 p.o., Day 12 after cell inoculation): 162.55 ± 9.74 mm^3
Tumor volume (x ± S) ([4]; Group 2: Celecoxib 50 mg/kg QD×15 p.o., Day 16 after cell inoculation): 175.22 ± 11.61 mm^3
Tumor volume (x ± S) ([4]; Group 2: Celecoxib 50 mg/kg QD×15 p.o., Day 19 after cell inoculation): 214.83 ± 26.19 mm^3
Tumor volume (x ± S) ([4]; Group 2: Celecoxib 50 mg/kg QD×15 p.o., Day 23 after cell inoculation): 361.15 ± 68.57 mm^3
Tumor volume (x ± S) ([4]; Group 2: Celecoxib 50 mg/kg QD×15 p.o., Day 26 after cell inoculation): 471.39 ± 90.94 mm^3
Tumor volume (x ± S) ([4]; Group 2: Celecoxib 50 mg/kg QD×15 p.o., Day 30 after cell inoculation): 577.49 ± 102.95 mm^3
Relative tumor volume (x ± S) [4, 7]: 3.91 ± 0.45
T/C (%) [4, 7]: 70.13%
TGI (%) [4, 7]: 29.87%
Tumor volume (x ± S) ([4]; Group 2: Celecoxib 50 mg/kg QD×15 p.o., Day 30 after inoculation, in mm³): 577.49 ± 102.95
Tumor volume (x ± S) ([4]; Group 2: Celecoxib 50 mg/kg QD×15 p.o., Day 33 after cell inoculation): 655.39 ± 126.55 mm^3
Tumor volume (x ± S) ([4]; Group 2: Celecoxib 50 mg/kg QD×15 p.o., Day 37 after cell inoculation): 1053.12 ± 274.37 mm^3
Tumor volume (x ± S) ([4]; Group 3: Celecoxib 100 mg/kg QD×15 p.o., Day 9 after cell inoculation): 144.13 ± 11.94 mm^3
Tumor volume (x ± S) ([4]; Group 3: Celecoxib 100 mg/kg QD×15 p.o., Day 12 after cell inoculation): 166.97 ± 17.80 mm^3
Tumor volume (x ± S) ([4]; Group 3: Celecoxib 100 mg/kg QD×15 p.o., Day 16 after cell inoculation): 233.79 ± 48.62 mm^3
Tumor volume (x ± S) ([4]; Group 3: Celecoxib 100 mg/kg QD×15 p.o., Day 19 after cell inoculation): 331.06 ± 73.94 mm^3
Tumor volume (x ± S) ([4]; Group 3: Celecoxib 100 mg/kg QD×15 p.o., Day 23 after cell inoculation): 479.72 ± 117.21 mm^3
Tumor volume (x ± S) ([4]; Group 3: Celecoxib 100 mg/kg QD×15 p.o., Day 26 after cell inoculation): 581.86 ± 130.92 mm^3
Tumor volume (x ± S) ([4]; Group 3: Celecoxib 100 mg/kg QD×15 p.o., Day 30 after cell inoculation): 730.52 ± 183.64 mm^3
Relative tumor volume (x ± S) [4, 8]: 4.86 ± 0.82
T/C (%) [4, 8]: 87.16%
TGI (%) [4, 8]: 12.84%
Tumor volume (x ± S) ([4]; Group 3: Celecoxib 100 mg/kg QD×15 p.o., Day 30 after inoculation, in mm³): 730.52 ± 183.64
Tumor volume (x ± S) ([4]; Group 3: Celecoxib 100 mg/kg QD×15 p.o., Day 33 after cell inoculation): 867.83 ± 225.15 mm^3
Tumor volume (x ± S) ([4]; Group 3: Celecoxib 100 mg/kg QD×15 p.o., Day 37 after cell inoculation): 1459.88 ± 505.50 mm^3

Cmax (clinical): 94 µM
Compound: CC(C)Cc1ccc(C(C)C(=O)O)cc1 (centres unmarked) [Ibuprofen]
effect of the combination on the cell proliferation inhibitory activity of AST-3424 (H460 cell line): almost no effect
AKR1C3 inhibitory activity (AKR1C3): have AKR1C3 inhibitory activity
Cmax ([2]; ibuprofen reference preparation, single dose, fasting, healthy Chinese subjects): 19400 ng/mL
